Measured values as given in paper PMC9415646, “Improving Aqueous Solubility and In Vitro Pharmacokinetic Properties of the 3-Nitroimidazo[1,2-a]pyridine Antileishmanial Pharmacophore” (Pharmaceuticals, 2022).

Assays:
[1] = tested on: L. infantum promastigotes; assay: Antileishmanial activity against L. infantum promastigotes (luciferase assay); format: cell-based; details: Leishmania infantum, 72 h, read-out: EC50 L. infantum Pro.
Procedure: L. infantum promastigotes (MHOM/MA/67/ITMAP-263, CNR Leishmania, Montpellier, France, expressing luciferase activity) were used in the following tests. The effects of the tested compounds on the growth of L. infantum promastigotes were assessed by Luciferase Assay. Briefly, promastigotes in log-phase in RPMI 1640 medium supplemented with 10% fetal calf serum (FCS), 2 mM L-glutamine and antibiotics (100U/mL penicillin, 100 µg/mL streptomycin and 50µg/mL geneticin), were incubated at an average density of 10^6 parasites/mL (100 µL/well) in sterile 96-well plates with various concentrations of compounds dissolved in DMSO (final concentration less than 0.5% v/v), in duplicate. Appropriate controls (100 µL/well) treated by DMSO and reference drugs (purchased for the majority from Sigma Aldrich) were added to each set of experiments. After a 72 h incubation period at 24 °C, each plate-well was then microscope-examined for detecting possible precipitate formation. To estimate the luciferase activities of promastigotes, 80 µL of each well are transferred in white 96-well plates, Steady Glow reagent (Promega) was added according to manufacter’s instructions, and plates were incubated for 2 min. The luminescence was measured in a FLUOstar Omega (BMG Labtech, Champigny-sur-Marne, France). […] EC50 were calculated by non-linear regression analysis processed on dose–response curves, using TableCurve 2D V5 software.

[2] = tested on: L. donovani promastigotes; assay: Antileishmanial activity against L. donovani promastigotes (MTT assay); format: cell-based; details: Leishmania donovani; promastigotes, 72 h, MTT; read-out: EC50 L. donovani Pro.
Procedure: The Leishmania species used in this study were L. donovani (MHOM/IN/00/DEVI) purchased from CNR Leishmania (Montpellier, France). Leishmania promastigote forms were grown in Schneider’s Drosophila medium (Life Technologies, Saint-Aubin, France) supplemented with 100 U/mL penicillin, 100 µg/mL streptomycin, 2 mM L-glutamine and 20% FCS (Life Technologies, Saint-Aubin, France) at 27 °C. The in vitro evaluation of the tested compound’s antileishmanial activity on promastigote forms was carried out by MTT assay according to the Mosmann protocol with some modifications. Briefly, promastigotes in log-phase were incubated at an average density of 10^6 parasites/mL in sterile 96-well plates with various concentrations of compound dissolved in DMSO (final concentration less than 0.5% v/v), in duplicate. Appropriate controls treated with DMSO, Miltefosine, Amphotericin B, Fexinidazole, and Fexinidazole sulfone (reference drugs purchased from Sigma-Aldrich, Saint-Louis, Missouri, USA) were added to each set of experiments. After a 72 h incubation period at 27 °C, parasitic metabolic activity was determined. Each plate-well was then microscope-analyzed to detect any precipitate formation. 20 µL of MTT (3-(4,5-dimethylthiazol-2-yl)-2,5-diphenyltetrazolium bromide) (Sigma-Aldrich, Saint-Louis, Missouri, USA) solution (5 mg/mL in PBS) were added to each well and incubated for 4 h at 27 °C. The enzyme reaction was then stopped by addition of 100 µL of 50% isopropanol–10% sodium dodecyl sulfate. Plates were shaken vigorously at 300 rpm for 10 min. The absorbance was measured at 570 nm in a BIO-TEK Elx808 (Biotek, Colmar, France) absorbance microplate reader. […] EC50 values were calculated by non-linear regression analysis processed dose-response curves, using TableCurve 2D V5.0 software (Systat Software Inc. (Palo Alto, CA, USA)). EC50 values represent the mean value calculated from at least three separate experiments.

[3] = tested on: L. infantum intracellular amastigotes; assay: Antileishmanial activity on L. infantum intracellular (intra-THP1 macrophage) amastigotes; format: cell-based; details: Leishmania infantum, THP-1; intramacrophage (THP1) amastigotes, 120 h; read-out: EC50 L. infantum Intra. Ama.
Procedure: The undifferentiated THP1 human monocyte cells (acute monocytic leukemia cell line purchased from ATCC, ref TIB-202) were grown in RPMI 1640 medium (Life Technologies, Saint-Aubin, France) supplemented with 10% FCS (Life Technologies, Saint-Aubin, France), 100 U/mL penicillin, 100 µg/mL streptomycin and 2 mM L-glutamine at 37 °C, 5% CO2. The culture was maintained between 3.10^5 and 1.10^6 cells/mL. The in vitro evaluation of the antileishmanial activity on intracellular amastigote forms of the tested compound was assessed as below.
Briefly, 200 μL of THP-1 cells with Phorbol 12-Myristate 13-Acetate (final concentration 50 ng/mL) were seeded in 96-well plates at an average density of 0.77 × 10^5 cells/mL and incubated for 96 h at 37 °C, 5% CO2. Promastigotes were centrifuged at 3000 rpm for 10 min and the supernatant replaced by the same volume of complete RPMI pH 5.4 and incubated for 24 h at 27 °C. Differentiated THP-1 cells were then infected by acidified promastigotes with an infection ratio of twenty parasites for one macrophage and incubated for 24 h at 37 °C, 5% CO2.
(§1) • Luciferase activity and determination of EC50 were performed as above.

[4] = tested on: L. infantum axenic amastigotes; assay: Antileishmanial activity on L. infantum axenic amastigotes (luciferase assay); format: cell-based; details: Leishmania infantum, 48 h, read-out: EC50 L. infantum Axenic Ama.
Procedure: L. infantum promastigotes were harvested in logarithmic phase of growth by centrifugation at 900× g for 10 min. The supernatant was removed carefully and was replaced by the same volume of RPMI 1640 complete medium at pH 5.4 and incubated for 24 h at 24 °C. The acidified promastigotes were then incubated for 24 h at 37 °C in a ventilated flask to transform them into axenic amastigotes. The amastigote stage was checked both by electron microscopy (short flagellum with small bulbous tip extending beyond a spherical cell body) and RT-PCR to confirm the overexpression of ATG8 and amastin genes in amastigotes, relative to promastigotes. The effects of the tested compounds on the growth of L. infantum axenic amastigotes were assessed as follows. L. infantum amastigotes were incubated at a density of 2 × 10^6 parasites/mL in sterile 96-well plates with various concentrations of compounds dissolved in DMSO (final concentration less than 0.5% v/v), in duplicate. Appropriate controls treated with DMSO, amphotericin B, miltefosine, fexinidazole and fexinidazole sulfone were added to each set of experiments. After a 48 h incubation period at 37 °C, each plate-well was then microscopically examined to detect any precipitate formation.
as §1

## O=[N+]([O-])c1c(CS(=O)(=O)c2ccc(OC(F)(F)F)cc2)nc2c(Br)cc(Cl)cn12 [Compound 2f, 8-Bromo-6-Chloro-3-Nitro-2-[(4-Trifluoromethoxyphenylsulfonyl)methyl]imidazo[1,2-a] pyridine]
other
  melting point: 178 °C
[1]
  EC50: 6700 ± 800 nM
[2]
  EC50: 4400 ± 100 nM
[3]
  EC50: 4200 ± 300 nM
[4]
  EC50: 2700 ± 400 nM

## COc1ccc(S(=O)(=O)Cc2nc3c(Br)cc(Cl)cn3c2[N+](=O)[O-])cc1 [Compound 2g, 8-Bromo-6-Chloro-2-[(4-Methoxyphenylsulfonyl)methyl]-3-Nitroimidazo[1,2-a]pyridine]
other
  melting point: 226 °C
[1]
  EC50: 9300 ± 1200 nM
[2]
  EC50: 2800 ± 900 nM
[3]
  EC50: 2200 ± 100 nM
[4]
  EC50: 2300 ± 300 nM

## O=[N+]([O-])c1c(CS(=O)(=O)c2ccc(O)cc2)nc2c(Sc3ccc(Cl)cc3)cc(Cl)cn12 [Compound 3a, 4-{[(6-Chloro-8-[(4-Chlorophenyl)thio]-3-Nitroimidazo[1,2-a]pyridin-2-yl)methyl]sulfonyl}phenol]
other
  melting point: 241 °C
[1]
  EC50: 5600 ± 900 nM
[2]
  EC50: 800 ± 200 nM
[3]
  EC50: 2700 ± 500 nM
[4]
  EC50: 1400 ± 300 nM

## O=[N+]([O-])c1c(CS(=O)(=O)c2ccc(Cl)cc2)nc2c(Sc3ccc(Cl)cc3)cc(Cl)cn12 [Compound 3b, 6-Chloro-2-[(4-Chlorophenylsulfonyl)methyl]-8-[(4-Chlorophenyl)thio]-3-Nitroimidazo[1,2-a]pyridine]
other
  melting point: 221 °C
[1]
  EC50: 1200 ± 100 nM
[2]
  EC50: 1400 ± 100 nM
[3]
  EC50: 700 ± 100 nM
[4]
  EC50: 1000 ± 100 nM

## O=[N+]([O-])c1c(CS(=O)(=O)c2ccc(F)cc2)nc2c(Sc3ccc(Cl)cc3)cc(Cl)cn12 [Compound 3c, 6-Chloro-8-[(4-Chlorophenyl)thio]-2-[(4-Fluorophenylsulfonyl)methyl]-3-Nitroimidazo[1,2-a]pyridine]
other
  melting point: 197 °C
[1]
  EC50: 1500 ± 100 nM
[2]
  EC50: 900 ± 100 nM
[3]
  EC50: 1600 ± 100 nM
[4]
  EC50: 200 ± 100 nM

## O=[N+]([O-])c1c(CS(=O)(=O)c2ccc(C(F)(F)F)cc2)nc2c(Sc3ccc(Cl)cc3)cc(Cl)cn12 [Compound 3d, 6-Chloro-8-[(4-Chlorophenyl)thio]-3-Nitro-2-[(4-Trifluoromethylphenylsulfonyl)methyl]imidazo[1,2-a]pyridine]
other
  melting point: 222 °C
[1]
  EC50: 3300 ± 400 nM
[2]
  EC50: 1800 ± 200 nM
[3]
  EC50: 4400 ± 200 nM
[4]
  EC50: 800 ± 100 nM

## O=[N+]([O-])c1c(CS(=O)(=O)c2ccc(OC(F)(F)F)cc2)nc2c(Sc3ccc(Cl)cc3)cc(Cl)cn12 [Compound 3e, 6-Chloro-8-[(4-Chlorophenyl)thio]-3-Nitro-2-[(4-Trifluoromethoxyphenylsulfonyl)methyl]imidazo[1,2-a]pyridine]
other
  melting point: 173 °C
[1]
  EC50: 3100 ± 200 nM
[2]
  EC50: 2600 ± 200 nM
[3]
  EC50: 1600 ± 100 nM
[4]
  EC50: 800 ± 200 nM

## COc1ccc(S(=O)(=O)Cc2nc3c(Sc4ccc(Cl)cc4)cc(Cl)cn3c2[N+](=O)[O-])cc1 [Compound 3f, 6-Chloro-8-[(4-Chlorophenyl)thio]-2-[(4-Methoxyphenylsulfonyl)methyl]-3-Nitroimidazo[1,2-a]pyridine]
other
  melting point: 214 °C
[1]
  EC50: 1200 ± 100 nM
[2]
  EC50: 1200 ± 100 nM
[3]
  EC50: 900 ± 100 nM
[4]
  EC50: 500 ± 100 nM

## O=[N+]([O-])c1c(CS(=O)(=O)C2CC2)nc2c(Sc3ccc(Cl)cc3)cc(Cl)cn12 [Compound 3h, 6-Chloro-8-[(4-Chlorophenyl)thio]-2-[(cyclopropylsulfonyl)methyl]-3-Nitroimidazo[1,2-a]pyridine]
other
  melting point: 196 °C
[1]
  EC50: 2200 ± 300 nM
[2]
  EC50: 2200 ± 300 nM
[3]
  EC50: 3700 ± 200 nM
[4]
  EC50: 2400 ± 100 nM

## O=[N+]([O-])c1c(CS(=O)(=O)CCC(F)(F)F)nc2c(Sc3ccc(Cl)cc3)cc(Cl)cn12 [Compound 3i, 6-Chloro-8-[(4-Chlorophenyl)thio]-3-Nitro-2-[(3,3,3-Trifluoropropylsulfonyl)methyl]imidazo[1,2-a]pyridine]
other
  melting point: 183 °C
[1]
  EC50: 1400 ± 100 nM
[2]
  EC50: 1400 ± 200 nM
[3]
  EC50: 1200 ± 100 nM
[4]
  EC50: 800 ± 300 nM

## O=[N+]([O-])c1c(CS(=O)(=O)CCC(F)(F)F)nc2c(S(=O)(=O)c3ccc(Cl)cc3)cc(Cl)cn12 [Compound 6b, 6-Chloro-8-[(4-Chlorophenyl)sulfonyl]-3-Nitro-2-[(3,3,3-Trifluoropropylsulfonyl)methyl] imidazo[1,2-a]pyridine]
other
  melting point: 233 °C
[1]
  EC50: 13700 ± 900 nM
[2]
  EC50: 1300 ± 200 nM
[3]
  EC50: 8300 ± 800 nM
[4]
  EC50: 2300 ± 300 nM

## O=[N+]([O-])c1c(CS(=O)(=O)CCC(F)(F)F)nc2c(-c3ccncc3)cc(Cl)cn12 [Compound 7, 6-Chloro-3-Nitro-8-(Pyridin-4-yl)-2-[(3,3,3-Trifluoropropylsulfonyl)methyl]imidazo[1,2-a]pyridine]
other
  melting point: 184 °C
[1]
  EC50: 14000 ± 400 nM
[2]
  EC50: 3100 ± 600 nM
[3]
  EC50: 3700 ± 400 nM
[4]
  EC50: 14000 ± 900 nM

## CSc1ccc(OCc2ncc([N+](=O)[O-])n2C)cc1 [Fexinidazole, reference compound]
[1]
  EC50: 1000 ± 100 nM
[2]
  EC50: 1200 ± 200 nM
[3]
  EC50: 15900 ± 3200 nM
[4]
  EC50: 7800 ± 2300 nM

## O=[N+]([O-])c1c(CS(=O)(=O)c2ccccc2)nc2c(Br)cc(Cl)cn12 [Hit A, 8-Bromo-6-chloro-3-nitro-2-(phenylsulfonylmethyl)imidazo[1,2-a]pyridine, reference compound]
[1]
  EC50: 8700 ± 700 nM
[2]
  EC50: 5300 ± 1100 nM
[3]
  EC50: 2100 ± 100 nM
[4]
  EC50: 16400 ± 1300 nM

## O=[N+]([O-])c1c(CS(=O)(=O)c2ccccc2)nc2c(Sc3ccc(Cl)cc3)cc(Cl)cn12 [Hit B, reference compound]
[1]
  EC50: 600 ± 100 nM
[2]
  EC50: 1000 ± 300 nM
[3]
  EC50: 3200 ± 100 nM
[4]
  EC50: 1700 ± 300 nM
